The source made the active and inactive calls. The calls are words filed in the database; no cut-off is given here.
How the values were obtained:
[1] = Antioxidant activity assessed as inhibition of […]-xanthine oxidase system-mediated superoxide formation measured over 7 mins by lucigenin-based chemiluminescence analysis; assay type: physicochemical
[2] = Cytotoxicity against BAECs assessed as decrease in total intracellular LDH content at 15 mM measured after 3 hrs by LDH assay relative to vehicle control; assay type: cell-based, Bos taurus; set-up: scale not given: the % may be the effect or the level left; conditions: cattle, baec, 15000 µM
Aorta [3] = assay: Potentiation of SNP-induced vasorelaxant activity in Sprague-Dawley rat endothelium-intact aortic rings assessed as reduction in L-phenylephrine hydrochloride-induced contraction at 200 uM relative to SNP; assay type: functional
Aorta [4] = assay: Protection against NADPH-induced superoxide-mediated tissue damage in Sprague-Dawley rat endothelium-intact aortic rings assessed as inhibition of protein carbonyl formation at 200 uM pre-incubated for 30 mins in presence of DTC prior to NADPH addition measured after 60 mins using 7-hydrazino-4-nitrobenzo-2,1,3-oxadiazole by fluorimetric analysis; assay type: functional
Aorta [5] = assay: (§1) Protection against NADPH-induced superoxide-mediated tissue damage in Sprague-Dawley rat endothelium-intact aortic rings assessed as decomposition of methyl radical adduct preincubated for 30 mins at 200 uM in presence of DTC prior to NADPH addition after 60 mins followed by renewal of media with NADPH-compound mixture measured after 4 days by EPR spectroscopy relative to control; assay type: functional
Aorta [6] = assay: Protection against superoxide-mediated tissue damage in Sprague-Dawley rat endothelium-intact aortic rings assessed as methyl radical adduct formation preincubated for 30 mins at 200 uM in presence of DTC measured after 4 days by EPR spectroscopy; assay type: functional
[7] = Cytotoxicity against BAEC assessed as decrease in total intracellular LDH content at 15 mM measured after 1 hr by LDH assay relative to vehicle-treated control; assay type: cell-based, Bos taurus; set-up: scale not given: the % may be the effect or the level left; conditions: cattle, 15000 µM
Aorta [8] = assay: Toxicity in Sprague-Dawley rat endothelium-intact aortic rings at 15 mM measured after 20 mins; conditions: 15000 µM
Aorta [9] = assay: as §1, with “as” for “as decomposition of”, “formation pre-incubated” for “preincubated”, “addition measured” for “addition”, “20 mins in presence of DPI” for “4 days”, “spectroscopy” for “spectroscopy relative to control”; assay type: functional
[10] = Antioxidant activity assessed as DPPH scavenging activity measured after 3 mins by spectrophotometric method; assay type: physicochemical
[11] = Antioxidant activity assessed as AAPH free radical scavenging activity measured as trolox equivalent by TRAP assay; assay type: physicochemical
[12] = biological target: Xanthine dehydrogenase/oxidase (Homo sapiens, UniProt P47989); assay: Inhibition of xanthine oxidase (unknown origin) using xanthine as substrate assessed as inhibition of uric acid formation at 1 to 100 uM after 30 mins by spectrophotometric method; conditions: 0.5 h
Xanthine dehydrogenase/oxidase, sequence (P47989 whole entry): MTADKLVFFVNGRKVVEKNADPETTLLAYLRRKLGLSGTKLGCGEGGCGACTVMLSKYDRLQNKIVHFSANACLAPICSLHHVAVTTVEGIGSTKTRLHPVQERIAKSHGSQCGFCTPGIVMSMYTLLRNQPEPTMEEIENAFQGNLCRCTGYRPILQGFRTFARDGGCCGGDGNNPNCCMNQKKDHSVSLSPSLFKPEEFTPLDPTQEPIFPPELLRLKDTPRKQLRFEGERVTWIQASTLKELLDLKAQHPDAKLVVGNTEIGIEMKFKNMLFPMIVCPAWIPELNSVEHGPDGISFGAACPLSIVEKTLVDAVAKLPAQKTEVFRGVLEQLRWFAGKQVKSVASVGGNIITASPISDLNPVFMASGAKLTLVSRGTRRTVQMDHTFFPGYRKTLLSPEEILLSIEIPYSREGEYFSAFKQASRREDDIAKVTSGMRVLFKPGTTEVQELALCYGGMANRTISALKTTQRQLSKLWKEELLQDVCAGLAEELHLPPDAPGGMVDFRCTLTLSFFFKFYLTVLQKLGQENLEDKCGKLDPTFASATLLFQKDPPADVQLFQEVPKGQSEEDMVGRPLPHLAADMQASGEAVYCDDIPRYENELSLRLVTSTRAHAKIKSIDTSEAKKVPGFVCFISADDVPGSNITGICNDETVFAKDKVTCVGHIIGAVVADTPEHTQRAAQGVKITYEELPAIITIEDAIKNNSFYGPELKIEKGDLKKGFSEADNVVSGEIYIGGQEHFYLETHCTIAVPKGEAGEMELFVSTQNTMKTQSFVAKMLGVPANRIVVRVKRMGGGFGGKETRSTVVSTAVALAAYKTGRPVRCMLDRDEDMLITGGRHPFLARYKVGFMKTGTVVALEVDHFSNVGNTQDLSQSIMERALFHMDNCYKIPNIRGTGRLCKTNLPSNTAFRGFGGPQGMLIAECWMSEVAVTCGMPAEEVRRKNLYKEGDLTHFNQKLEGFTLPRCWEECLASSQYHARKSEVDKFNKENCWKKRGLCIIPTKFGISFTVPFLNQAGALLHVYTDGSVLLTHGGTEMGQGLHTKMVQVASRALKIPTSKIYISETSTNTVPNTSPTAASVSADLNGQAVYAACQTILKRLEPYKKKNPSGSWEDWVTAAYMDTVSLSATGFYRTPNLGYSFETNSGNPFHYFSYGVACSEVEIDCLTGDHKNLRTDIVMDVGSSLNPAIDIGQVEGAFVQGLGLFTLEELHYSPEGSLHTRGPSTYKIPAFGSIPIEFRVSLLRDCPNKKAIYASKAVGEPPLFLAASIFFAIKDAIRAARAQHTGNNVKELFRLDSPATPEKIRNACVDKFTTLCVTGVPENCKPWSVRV

A549 [13] = assay: Cytotoxicity against human A549 cells assessed as reduction in cell viability measured after 48 hrs by FMCA assay; assay type: cell-based; conditions: A549, 48 h
A549 [14] = assay: Cytotoxicity against human A549 cells assessed as reduction in cell viability measured after 48 hrs by luminescence-based ATP assay; conditions: A549, 48 h
A549 [15] = assay: Cytotoxicity against human A549 cells assessed as reduction in cell viability measured after 48 hrs by MTT assay; assay type: cell-based; conditions: A549, 48 h
[16] = Cytotoxicity against BAEC assessed as reduction in cell viability measured after 24 hrs by MTT assay; set-up: species or system Bos taurus; conditions: cattle
Aorta [17] = assay: (§2) Vasoprotective activity against oxidative stress-induced impairment of ACh-stimulated vasorelaxation in Sprague-Dawley rat endothelium-intact aortic rings assessed as reduction in L-phenylephrine hydrochloride-induced contraction preincubated for 10 to 20 mins in presence of xanthine-xanthine oxidase system prior to L-phenylephrine hydrochloride addition; assay type: functional
Aorta [18] = assay: as §2, with “system at 200 uM” for “system”, “addition relative to ACh” for “addition”; assay type: functional
[19] = Induction of nitric oxide release in water using Fe2+-MGD2 as nitric oxide trap at pH 6.56 measured 70 mins post UV-photolysis in dark condition by EPR spectroscopy; assay type: physicochemical; conditions: buffer, pH 6.56, 70 min

SMILES | IC50 [1] [µM] | Activity [2] [%] | Rmax (Aorta [3]) [%] | inhibition (Aorta [4]) | Activity (Aorta [5]) [%] | Activity (Aorta [6]) | Activity [7] [%] | Activity (Aorta [8]) | Activity (Aorta [9]) | EC50 [10] [µM] | Activity [11] [equiv] | inhibition (INH) [12] | IC50 (A549 [13]) [µM] | IC50 (A549 [14]) [µM] | IC50 (A549 [15]) [µM] | IC10 [16] [µM] | EC50 (Aorta [17]) [µM] | Rmax (Aorta [18]) [%] | Activity [19]
CCOP(=O)(OCC)C(C)NC(C)(C)C (stereo not drawn) | > 40000 |  |  |  |  |  |  |  |  |  |  |  |  |  |  |  |  |  | 
CCOP(=O)(OCC)C(C)(C)/[N+]([O-])=C/c1cc(O)cc(O)c1 | 187 | 23 | 98 | Active | < 5 | inactive | < 10 | Non-toxic | inactive | > 1000 | 0.7 | Not Active | 4900 | 7000 | 7900 | 600 |  |  | 
CCOP(=O)(OCC)C(C)(C)/[N+]([O-])=C/c1ccc(O)c(OC)c1 | 28.6 | 23 | 100 | Active | < 5 | inactive | < 10 | Non-toxic | inactive | 254 | 1.91 | Not Active | 6400 | 4300 | 3900 | 700 | 0.0537 | 86 | 
CCOP(=O)(OCC)C(C)(C)/[N+]([O-])=C/c1ccc(C(=O)O)cc1 | 4.1 |  |  |  |  |  |  |  |  | > 1000 | 0.02 | Not Active | 7900 | 8200 | 7300 | 1300 |  |  | 
CCOP(=O)(OCC)C(C)(C)/[N+]([O-])=C/c1cccc(O)c1 | 123 | 26 | 99 | Active | 6 | inactive | < 10 | Non-toxic | inactive | > 1000 | 0.1 | Not Active | 7600 | 8300 | 7500 | 800 |  |  | 
CCOC(=O)c1ccc(/C=[N+](\[O-])C(C)(C)P(=O)(OCC)OCC)cc1 | 6.8 |  |  |  |  |  |  |  |  | > 1000 | 0.16 | Not Active | 4500 | 3600 | 3500 | 400 |  |  | 
CCOP(=O)(OCC)C(C)(C)/[N+]([O-])=C/c1ccc(O)c(O)c1 | 0.2 | 28 | 103 | Active | < 5 | inactive | < 10 | Non-toxic | inactive | 22 | 2.22 | Not Active | 1900 | 1900 | 1300 | 500 | 0.0407 | 93 | 
O=C(O)/C=C/c1ccc(O)c(O)c1 [CAFFEIC ACID] | 0.1 |  |  |  |  |  |  |  |  | 17 | 2.73 |  | 500 | 700 | 700 | 200 |  |  | 
CCOP(=O)(OCC)C(C)(C)/[N+]([O-])=C/c1ccccc1C(F)(F)F | 4.2 |  | 104 |  |  |  |  | Non-toxic |  | > 1000 | 0.02 | Not Active | 2200 | 2700 | 4200 | 400 |  |  | Active
CCOP(=O)(OCC)C(C)(C)/[N+]([O-])=C/c1ccc(O)cc1O | 43.3 |  |  |  |  |  | < 10 | Non-toxic |  | > 1000 | 1.61 | Not Active |  |  |  |  |  |  | 
CCOP(=O)(OCC)C(C)(C)/[N+]([O-])=C/c1ccc(O)cc1 | 60.8 | 18 | 99 | Active | < 5 | inactive | < 10 | Non-toxic | inactive | > 1000 | 0.65 | Not Active | 10500 | 12400 | 13000 | 1600 |  |  | 
COc1cc(/C=C/C(=O)O)ccc1O [FERULATE] | 34.9 |  |  |  |  |  |  |  |  | 61 | 2.16 |  | 2600 | 3200 | 3100 | 800 |  |  | 
CCOP(=O)(OCC)C(C)(C)/[N+]([O-])=C/c1ccccc1O | 33.5 | 21 | 99 |  |  |  | < 10 | Non-toxic |  | > 1000 | 0.25 | Not Active | 8200 | 9300 | 9000 | 1400 |  |  | 
O=c1c(O)c(-c2ccc(O)c(O)c2)oc2cc(O)cc(O)c12 [QUERCETIN] | 0.5 |  |  |  |  |  |  |  |  | 13 | 6.28 |  |  |  |  |  |  |  | 
Cc1c(C)c2c(c(C)c1O)CCC(C)(C(=O)O)O2 (stereo not drawn) [TROLOX] | 13.3 |  |  |  |  |  |  |  |  | 20 |  |  |  |  |  |  |  |  | 
CCOP(=O)(OCC)C(C)(C)/[N+]([O-])=C/c1ccccc1[N+](=O)[O-] | 30 | 54 | 100 |  |  |  | < 10 | Non-toxic |  | > 1000 | 0.02 | Not Active | 2200 | 1400 | 1300 | < 100 |  |  | Active
CCOP(=O)(OCC)C(C)(C)/[N+]([O-])=C/c1ccc([N+](=O)[O-])cc1 | 9.3 | 53 | 101 |  |  |  | < 10 | Non-toxic |  | > 1000 | 0.02 | Not Active | 1100 | 1000 | 1200 | < 100 |  |  | 
COc1cc(/C=C/C(=O)O)cc(OC)c1O [SINAPINATE] | 22.4 |  |  |  |  |  |  |  |  | 35 | 1.64 |  | 4600 | 5700 | 4900 | 1200 |  |  | 
O=C(O)c1cc(O)c(O)c(O)c1 [GALLIC ACID] | 0.7 |  |  |  |  |  |  |  |  | 7 | 1.18 |  | 400 | 400 | 400 | < 100 |  |  | 
CCOP(=O)(OCC)C(C)(C)/[N+]([O-])=C/c1c(C)cccc1C | 350 |  | 105 | Active |  |  |  | Non-toxic |  | > 1000 | 0.02 | Not Active | 4700 | 5300 | 4400 | 500 |  |  | Active
CCOP(=O)(OCC)C(C)(C)/[N+]([O-])=C/c1cccc([N+](=O)[O-])c1 | 52.3 |  |  |  |  |  | < 10 | Non-toxic |  | > 1000 | 0.02 | Not Active |  |  |  |  |  |  | 
CCOP(=O)(OCC)C(C)(C)/[N+]([O-])=C/c1ccc(NC(C)=O)cc1 | 26.3 |  |  |  |  |  |  |  |  | > 1000 | 0.02 | Not Active |  |  |  |  |  |  | 
CCOP(=O)(OCC)C(C)(C)/[N+]([O-])=C/c1cc(O)c(O)c(O)c1 | 0.9 | 29 | 104 | Active | < 5 | inactive | < 10 | Non-toxic | inactive | 19 | 1.46 | Not Active | 600 | 600 | 700 | 200 | 0.0282 | 93 | 
